From US9000174B2, “4-phenylsulfonamidopiperidines as calcium channel blockers” (Purdue Pharma L.P., priority 2004, dated 2015)
Where a name gives a salt, the structure may show the parent alone.

What follows are compounds tested against T1, L-type calcium channel (LTCC) (Rattus norvegicus, UniProt P22002) (assay: FLIPR calcium mobilization (and/or electrophysiological) assay for L-type calcium channel). Conditions: calcium mobilization and/or electrophysiological in vitro assay; differentiated A7r5 cells, 90 mM KCl.
T1 construct: differentiated A7r5 cells were trypsinized, then seeded on tissue culture treated 96-well clear-bottom black plates; endogenous in cells; host or cells: differentiated A7r5 cells (ATCC)
Type: cell-based
Experimental: A7r5 (ATCC) cells were maintained and routinely cultured in A7r5 growth medium consisting of Dulbecco's Modified Eagles Medium containing 10% FBS, 100 U/mL penicillin, 100 μg/mL streptomycin, 4 mM L-glutamine, and 0.15% sodium bicarbonate. 80-90% confluent flasks of cells were differentiated using the following differentiation medium: A7r5 Growth Medium plus 1 mM dibutyryl cyclic AMP (Sigma). Cells were differentiated for 8 days by replacing differentiation medium every 2-3 days.
One day prior to performing this assay, differentiated A7r5 cells were trypsinized, then seeded on tissue culture treated 96-well clear-bottom black plates (Becton Dickinson, Franklin Lakes, N.J.) at a dilution of 1:1 from a confluent T150 cm^2 flask. On the day of the assay, the plates were washed with A7r5 wash buffer (127 mM NaCl, 2 mM MgCl2, 700 μM NaH2PO4, 5 mM CaCl2, 5 mM NaHCO3, 8 mM HEPES, 10 mM glucose, pH 7.4), then loaded with 0.1 mL of A7r5 wash buffer containing Fluo-4 (3 μM final concentration, Molecular Probes, Eugene, Oreg.). After 1 hour, the cells were washed with 0.1 mL A7r5 wash buffer and resuspended in 0.05 mL A7r5 assay buffer that was composed of A7r5 wash buffer plus 50 μM valinomycin (Sigma). Plates were then transferred to a FLIPR^96 for assay. The FLIPR measured basal Fluo-4 fluorescence for 15 seconds, then added 0.05 mL of each compound tested diluted in A7r5 assay buffer at final concentrations ranging from about 846 pM to about 17 μM. Fluo-4 fluorescence was then measured for 5 minutes. 0.1 mL KCl agonist dissolved in A7r5 assay buffer was then added to the cells to produce a final concentration of 90 mM KCl, and fluorescence was measured for another 45 seconds. Data were collected over the entire time course and analyzed using Excel, Graph Pad Prism, or Activity Base software.

Row | IC50 [nM] | SMILES
1 | > 20000 | N[C@@H](C(=O)N1CCC(N(C2CC2)S(=O)(=O)c2cccc(C(F)(F)F)c2)CC1)C1CCCCC1 [(2R) N-[1-(2-Amino-2-cyclohexylethanoyl)piperidin-4-yl]-N-cyclopropyl-3-trifluoromethylbenzenesulfonamide]

These compounds were tested against T2, N-type calcium channel (NTCC) (Homo sapiens, UniProt Q00975) (assay: FLIPR calcium mobilization (and/or electrophysiological) assay for N-type calcium channel). Conditions: calcium mobilization and/or electrophysiological in vitro assay; differentiated IMR32 cells, 90 mM KCl, 5 μM nitrendipine.
T2 construct: endogenous in cells; host or cells: differentiated IMR32 cells (ATCC)
Type: cell-based
Experimental: Unless noted otherwise, cell culture reagents were purchased from Life Technologies of Rockville, Md. IMR32 cells (American Type Culture Collection, ATCC, Manassas, Va.) were routinely cultured in growth medium consisting of minimum essential medium containing 10% fetal bovine serum (FBS, Hyclone, Logan, Utah), 100 U/mL penicillin, 100 μg/mL streptomycin, 2 mM L-glutamine, 1 mM sodium pyruvate, and 1×MEM non-essential amino acids. 80-90% confluent flasks of cells were differentiated using the following differentiation medium: Growth medium plus 1 mM dibutyryl cyclic AMP (Sigma, St. Louis, Mo.), and 2.5 μM bromodeoxyuridine (Sigma). Cells were differentiated for 8 days by replacing differentiation medium every 2-3 days.
One day prior to performing this assay, differentiated IMR32 cells were treated with 1× CellStripper, and seeded on poly-D-lysine-coated 96-well clear-bottom black plates (Becton Dickinson, Franklin Lakes, N.J.) at 200,000 cells/well. On the day of the assay, the cell plates were washed with IMR32 buffer (127 mM NaCl, 1 mM KCl, 2 mM MgCl2, 700 μM NaH2PO4, 5 mM CaCl2, 5 mM NaHCO3, 8 mM HEPES, 10 mM glucose, pH 7.4), then pre-stimulated with KCl and loaded as follows: 0.05 mL of IMR32 buffer, 0.05 mL of each compound tested diluted in IMR32 buffer containing 20 μM nitrendipine (Sigma), and 0.1 mL KCl dissolved in IMR32 buffer, plus Fluo-4 were added (3 μM final concentration, Molecular Probes, Eugene, Oreg.). Final test compound concentrations ranged from about 846 pM to about 17 μM, final nitrendipine concentration was 5 μM, and final KCl concentration was 90 mM. After 1 hour, the cells were washed twice with 0.05 mL of each compound tested in nitrendipine-containing IMR32 buffer (no KCl or Fluo-4), and then replaced with 0.1 mL of each compound tested in nitrendipine-containing IMR32 buffer. Plates were then transferred to a Fluorimetric Imaging Plate Reader (FLIPR^96, Molecular Devices, Inc., Sunnyvale, Calif.) for assay. The FLIPR measured basal Fluo-4 fluorescence for 315 seconds (i.e., 5 minutes and 15 seconds), then added 0.1 mL KCl agonist dissolved in IMR32 buffer and measured fluorescence for another 45 seconds. Final test compound concentrations on the cells after FLIPR read ranged from about 846 pM to about 17 μM, final nitrendipine concentration was 5 μM, and final KCl concentration was 90 mM. Data were collected over the entire time course and analyzed using Excel, Graph Pad Prism (version 3.02, Graph Pad, San Diego, Calif.), or Activity Base (version 5.1, IDBS, Parsippany, N.J.) software.
N-type calcium channel expressing HEK-293 cells were created in two stages. Stage 1 was created as follows. The rat α1b, and β3 cDNA expression constructs (2.5 μg each) were co-transfected into human embryonic kidney (HEK-293) cells by Lipofectamine Plus reagent (Invitrogen), as per manufacturer's instructions. 24 hours later, cells were split in limiting dilution into multiple 96-well plates in selection media containing 20 μg/mL blasticidin and 500 μg/mL geneticin, and incubated for 3 weeks at 37° C., 5% CO2, 95% humidity. Plates containing ≦1 clone per well were cultured until wells positive for single clones were confluent. Individual clones were then arrayed into columns of a destination 96-well plate, and partly split into 6-well plates for culture maintenance. Array plates were washed once with IMR32 buffer and cells loaded for 1 hour with 0.1 mL of IMR32 buffer containing Fluo-4 (3 μM final concentration, Molecular Probes). Then they were washed twice with 0.1 mL of IMR32 buffer, and replaced with 0.1 mL IMR32 buffer. Plates were then transferred to a FLIPR^96 for assay. The FLIPR measured basal Fluo-4 fluorescence for 315 seconds, then added 0.1 mL KCl agonist dissolved in IMR32 buffer and measured fluorescence for another 45 seconds. Final KCl concentration was 90 mM. Data were collected over the entire time course and analyzed using Excel, Graph Pad Prism, or Activity Base software. […]

T2 sequence (Q00975 whole entry): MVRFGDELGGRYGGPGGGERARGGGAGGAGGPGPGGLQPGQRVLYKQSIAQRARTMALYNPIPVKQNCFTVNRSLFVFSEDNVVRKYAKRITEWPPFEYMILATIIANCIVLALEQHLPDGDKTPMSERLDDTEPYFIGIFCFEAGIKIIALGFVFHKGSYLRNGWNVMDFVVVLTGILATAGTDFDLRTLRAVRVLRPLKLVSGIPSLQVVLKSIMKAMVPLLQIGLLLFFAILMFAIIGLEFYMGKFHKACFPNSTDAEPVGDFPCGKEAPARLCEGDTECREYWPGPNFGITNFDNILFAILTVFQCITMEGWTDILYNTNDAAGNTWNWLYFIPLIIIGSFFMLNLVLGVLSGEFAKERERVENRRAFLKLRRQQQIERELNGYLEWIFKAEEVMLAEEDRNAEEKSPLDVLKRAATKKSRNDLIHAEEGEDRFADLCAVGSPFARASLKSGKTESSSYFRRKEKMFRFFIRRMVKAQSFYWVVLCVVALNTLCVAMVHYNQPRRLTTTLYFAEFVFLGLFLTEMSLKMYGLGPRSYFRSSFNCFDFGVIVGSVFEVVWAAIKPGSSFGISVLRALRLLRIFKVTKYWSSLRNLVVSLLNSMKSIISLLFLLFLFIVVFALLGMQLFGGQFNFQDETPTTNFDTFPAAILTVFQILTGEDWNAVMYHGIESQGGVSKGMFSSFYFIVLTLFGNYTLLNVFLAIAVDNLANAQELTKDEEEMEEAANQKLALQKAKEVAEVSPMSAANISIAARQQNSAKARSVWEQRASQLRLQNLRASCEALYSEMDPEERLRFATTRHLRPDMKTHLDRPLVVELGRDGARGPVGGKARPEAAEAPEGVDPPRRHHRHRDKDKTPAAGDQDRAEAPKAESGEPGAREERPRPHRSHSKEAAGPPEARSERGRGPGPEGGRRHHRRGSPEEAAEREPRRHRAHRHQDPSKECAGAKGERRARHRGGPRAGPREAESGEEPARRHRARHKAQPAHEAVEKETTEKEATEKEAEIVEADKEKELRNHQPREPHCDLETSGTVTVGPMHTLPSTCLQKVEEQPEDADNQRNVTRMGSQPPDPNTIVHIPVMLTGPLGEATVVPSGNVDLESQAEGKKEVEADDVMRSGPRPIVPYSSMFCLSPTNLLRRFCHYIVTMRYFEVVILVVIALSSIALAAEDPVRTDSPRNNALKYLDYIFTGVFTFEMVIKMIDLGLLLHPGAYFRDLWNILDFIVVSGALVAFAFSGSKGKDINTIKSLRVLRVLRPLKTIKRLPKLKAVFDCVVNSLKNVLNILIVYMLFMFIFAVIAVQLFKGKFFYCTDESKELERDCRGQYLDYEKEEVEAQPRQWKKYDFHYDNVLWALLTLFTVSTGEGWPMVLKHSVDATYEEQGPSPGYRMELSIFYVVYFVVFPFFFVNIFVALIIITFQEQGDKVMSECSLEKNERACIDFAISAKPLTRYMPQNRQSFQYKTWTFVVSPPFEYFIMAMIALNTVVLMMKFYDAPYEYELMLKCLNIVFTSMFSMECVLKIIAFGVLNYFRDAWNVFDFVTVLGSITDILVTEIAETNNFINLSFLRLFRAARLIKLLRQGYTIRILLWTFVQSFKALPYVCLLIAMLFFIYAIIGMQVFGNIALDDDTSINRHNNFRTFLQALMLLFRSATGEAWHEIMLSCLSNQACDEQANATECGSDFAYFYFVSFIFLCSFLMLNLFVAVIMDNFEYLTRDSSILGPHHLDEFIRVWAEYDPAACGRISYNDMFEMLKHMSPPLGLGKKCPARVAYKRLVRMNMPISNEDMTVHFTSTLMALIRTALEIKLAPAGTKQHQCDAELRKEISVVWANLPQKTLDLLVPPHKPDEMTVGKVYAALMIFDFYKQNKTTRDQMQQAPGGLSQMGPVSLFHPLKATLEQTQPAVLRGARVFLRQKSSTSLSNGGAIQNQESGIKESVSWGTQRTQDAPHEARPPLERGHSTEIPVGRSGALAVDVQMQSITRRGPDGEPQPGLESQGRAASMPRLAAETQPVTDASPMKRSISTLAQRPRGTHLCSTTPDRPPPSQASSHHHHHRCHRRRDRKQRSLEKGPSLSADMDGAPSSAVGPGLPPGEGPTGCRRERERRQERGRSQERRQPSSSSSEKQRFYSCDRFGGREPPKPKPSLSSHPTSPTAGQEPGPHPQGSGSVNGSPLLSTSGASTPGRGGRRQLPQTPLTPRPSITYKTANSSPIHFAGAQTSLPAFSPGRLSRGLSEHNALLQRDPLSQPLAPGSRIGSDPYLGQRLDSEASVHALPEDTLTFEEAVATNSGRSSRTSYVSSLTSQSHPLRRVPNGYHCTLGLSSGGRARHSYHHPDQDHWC
T2 sequence (P54284 whole entry partner): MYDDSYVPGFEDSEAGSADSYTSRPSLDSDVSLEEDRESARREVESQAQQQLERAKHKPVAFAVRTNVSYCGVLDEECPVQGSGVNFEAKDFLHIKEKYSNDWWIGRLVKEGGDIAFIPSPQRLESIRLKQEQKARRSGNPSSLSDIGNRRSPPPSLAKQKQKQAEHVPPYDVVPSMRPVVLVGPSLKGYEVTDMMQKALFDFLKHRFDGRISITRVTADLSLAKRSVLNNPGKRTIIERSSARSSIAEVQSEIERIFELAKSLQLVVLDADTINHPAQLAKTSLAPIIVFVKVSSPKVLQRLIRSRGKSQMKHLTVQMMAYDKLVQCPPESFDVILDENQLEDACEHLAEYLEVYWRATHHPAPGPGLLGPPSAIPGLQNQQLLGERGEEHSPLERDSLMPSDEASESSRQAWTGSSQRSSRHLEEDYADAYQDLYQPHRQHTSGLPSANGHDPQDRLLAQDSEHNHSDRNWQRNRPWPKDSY
T2 sequence (P54289 25-956 partner limits assumed): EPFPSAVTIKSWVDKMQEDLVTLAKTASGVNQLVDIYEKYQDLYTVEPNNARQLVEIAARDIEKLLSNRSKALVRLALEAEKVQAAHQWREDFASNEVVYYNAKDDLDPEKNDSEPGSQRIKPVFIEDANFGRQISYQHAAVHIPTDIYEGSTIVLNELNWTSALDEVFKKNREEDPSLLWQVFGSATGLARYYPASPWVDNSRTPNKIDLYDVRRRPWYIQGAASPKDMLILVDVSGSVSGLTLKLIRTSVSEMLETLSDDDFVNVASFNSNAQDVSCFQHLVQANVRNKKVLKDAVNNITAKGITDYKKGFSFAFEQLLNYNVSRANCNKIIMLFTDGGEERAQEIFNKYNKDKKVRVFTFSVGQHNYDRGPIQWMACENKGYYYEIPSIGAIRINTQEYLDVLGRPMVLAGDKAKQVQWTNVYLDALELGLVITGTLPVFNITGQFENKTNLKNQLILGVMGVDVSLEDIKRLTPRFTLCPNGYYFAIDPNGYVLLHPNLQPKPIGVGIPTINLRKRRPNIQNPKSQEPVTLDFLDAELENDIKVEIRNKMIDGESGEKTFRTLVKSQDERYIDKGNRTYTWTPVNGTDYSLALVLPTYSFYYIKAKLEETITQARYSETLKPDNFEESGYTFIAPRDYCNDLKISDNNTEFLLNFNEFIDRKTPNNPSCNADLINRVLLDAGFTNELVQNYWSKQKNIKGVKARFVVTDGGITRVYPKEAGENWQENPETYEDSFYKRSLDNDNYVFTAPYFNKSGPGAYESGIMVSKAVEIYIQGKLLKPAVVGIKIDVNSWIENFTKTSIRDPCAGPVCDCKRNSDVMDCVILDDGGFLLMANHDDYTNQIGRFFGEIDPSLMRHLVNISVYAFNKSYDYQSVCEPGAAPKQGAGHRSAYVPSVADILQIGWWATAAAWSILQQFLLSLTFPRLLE
T2 sequence (P54289 957-1103 partner limits assumed): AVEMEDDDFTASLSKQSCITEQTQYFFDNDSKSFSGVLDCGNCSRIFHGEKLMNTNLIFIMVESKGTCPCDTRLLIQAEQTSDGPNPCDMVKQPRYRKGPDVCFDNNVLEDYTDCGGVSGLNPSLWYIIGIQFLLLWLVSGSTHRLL

Row | SMILES | IC50 [nM]
2 | N[C@@H](C(=O)N1CCC(N(C2CC2)S(=O)(=O)c2cccc(C(F)(F)F)c2)CC1)C1CCCCC1 [(2R) N-[1-(2-Amino-2-cyclohexylethanoyl)piperidin-4-yl]-N-cyclopropyl-3-trifluoromethylbenzenesulfonamide] | 440
3 | CN[C@@H](CC(C)C)C(=O)N1CCC(N(CCO)S(=O)(=O)c2cccc(C(F)(F)F)c2)CC1 [(2S) N-(2-Hydroxyethyl)-N-[1-(4-methyl-2-methylamino-pentanoyl)piperidin-4-yl]-3-trifluoromethylbenzenesulfonamide hydrochloride] | 2230
4 | CN[C@@H](CC(C)C)C(=O)N1CCC(N(CCOC)S(=O)(=O)c2cccc(C(F)(F)F)c2)CC1 [(2S) N-(2-methoxyethyl)-N-[1-(4-methyl-2-methylaminopentanoyl)-piperidin-4-yl]-3-trifluoromethylbenzenesulfonamide] | 1220
5 | CN[C@@H](CC(C)C)C(=O)N1CCC(N(C2CCCC2)S(=O)(=O)c2cccc(C(F)(F)F)c2)CC1 [(2S) N-Cyclopentyl-N-[1-(4-methyl-2-methylamino-pentanoyl)piperidin-4-yl]-3-trifluoromethylbenzenesulfonamide fumarate] | 1560
6 | CN[C@@H](CC(C)C)C(=O)N1CCC(N(C2CC2)S(=O)(=O)c2cccc(OC(F)F)c2)CC1 [(2S) N-Cyclopropyl-N-[1-(4-methyl-2-methylaminopentanoyl)-piperidin-4-yl]-3-difluoromethoxybenzenesulfonamide] | 2440
7 | CN[C@@H](CC(C)C)C(=O)N1CCC(N(CC2CC2)S(=O)(=O)c2cccc(C(F)(F)F)c2)CC1 [(2S) N-Cyclopropylmethyl-N-[1-(4-methyl-2-methylamino-pentanoyl)piperidin-4-yl]-3-trifluoromethylbenzenesulfonamide fumarate] | 1310
8 | CN[C@@H](CC(C)C)C(=O)N1CCC(N(C2CCOC2)S(=O)(=O)c2cccc(C(F)(F)F)c2)CC1 (stereo partly drawn) [(2S) N-[1-(4-Methyl-2-methylaminopentanoyl)piperidin-4-yl]-N-(tetrahydrofuran-3-yl)-3-trifluoromethylbenzenesulfonamide fumarate] | 1840
9 | CN[C@@H](CC(C)C)C(=O)N1CCC(N(C[C@@H]2CCCO2)S(=O)(=O)c2cccc(C(F)(F)F)c2)CC1 [(2S) N-[1-(4-methyl-2-methylaminopentanoyl)piperidin-4-yl]-N-(tetrahydrofuran-2-yl)methyl-3-trifluoromethylbenzenesulfonamide] | 5060
10 | CN[C@@H](CC(C)C)C(=O)N1CCC(N(C2CC2)S(=O)(=O)c2cccc(Cl)c2)CC1 [(2S) N-cyclopropyl-N-[1-(4-methyl-2-methylaminopentanoyl)-piperidin-4-yl]-3-chlorobenzenesulfonamide] | 2630
11 | CN[C@@H](CC(C)C)C(=O)N1CCC(N(C2CC2)S(=O)(=O)c2cccc(C#N)c2)CC1 [(2S) N-cyclopropyl-N-[1-(4-methyl-2-methylaminopentanoyl)-piperidin-4-yl]-3-cyanobenzenesulfonamide] | 4270
12 | CN[C@@H](CC(C)C)C(=O)N1CCC(N(C2CC2)S(=O)(=O)c2cccc(F)c2)CC1 [(2S) N-cyclopropyl-N-[1-(4-methyl-2-methylaminopentanoyl)-piperidin-4-yl]-3-fluorobenzenesulfonamide] | 4660
13 | CN[C@@H](CC(C)C)C(=O)N1CCC(N(C2CC2)S(=O)(=O)c2cccc(OC)c2)CC1 [(2S) N-cyclopropyl-N-[1-(4-methyl-2-methylaminopentanoyl)-piperidin-4-yl]-3-methoxybenzenesulfonamide] | 7290
14 | CN[C@@H](CC(C)C)C(=O)N1CCC(N(C2CC2)S(=O)(=O)c2cccc(C)c2)CC1 [(2S) N-cyclopropyl-N-[1-(4-methyl-2-methylaminopentanoyl)-piperidin-4-yl]-3-methylbenzenesulfonamide] | 8290
15 | CN[C@@H](CC(C)C)C(=O)N1CCC(N(C2CC2)S(=O)(=O)c2cccc([N+](=O)[O-])c2)CC1 [(2S) N-cyclopropyl-N-[1-(4-methyl-2-methylaminopentanoyl)-piperidin-4-yl]-3-nitrobenzenesulfonamide] | 3620

The remaining lines, values ahead:

Row | IC50 [nM] | SMILES
16 | 1260 | CN[C@@H](CC(C)C)C(=O)N1CCC(N(CCC(C)C)S(=O)(=O)c2cccc(C(F)(F)F)c2)CC1 [(2S) N-i-pentyl-N-[1-(4-methyl-2-methylaminopentanoyl)piperidin-4-yl]-3-trifluoromethylbenzenesulfonamide]
17 | 1210 | CCCC=CC(=O)N1CCC(N(C2CC2)S(=O)(=O)c2cccc(C(F)(F)F)c2)CC1 [N-Cyclopropyl-N-(1-hex-2-enoyl-piperidin-4-yl)-3-trifluoromethylbenzenesulfonamide]
18 | 1580 | O=C(C1Cc2ccccc2CN1)N1CCC(N(C2CC2)S(=O)(=O)c2cccc(C(F)(F)F)c2)CC1 (stereo not drawn) [N-Cyclopropyl-N-[1-(1,2,3,4-tetrahydroisoquinolin-3-carbonyl)piperidin-4-yl]-3-trifluoromethylbenzenesulfonamide]
19 | 1380 | CN1CCCC1C(=O)N1CCC(N(C2CC2)S(=O)(=O)c2cccc(C(F)(F)F)c2)CC1 (stereo not drawn) [N-Cyclopropyl-N-[1-(N-methylpyrrolidin-2-carbonyl)piperidin-4-yl]-3-trifluoromethylbenzenesulfonamide]
20 | 1080 | NC1(C(=O)N2CCC(N(C3CC3)S(=O)(=O)c3cccc(C(F)(F)F)c3)CC2)CCCC1 [N-[1-(1-Aminocyclopentan-1-carbonyl)piperidin-4-yl]-N-cyclopropyl-3-trifluoromethylbenzenesulfonamide]
21 | 6210 | O=C(CCC(=O)N1CCC(N(C2CC2)S(=O)(=O)c2ccccc2)CC1)c1ccc(F)cc1 [N-cyclopropyl-N-{1-[4-(4-fluorophenyl)-4-oxobutanoyl]piperidin-4-yl}benzenesulfonamide]
